In PubChem BioAssay (NCI):
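The compound was tested at five concentrations on cells cultured in 96-well plates, with a 48-hour exposure period. TGI is the concentration that stops growth completely.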

Tests used:
Assay in all cases: NCI tumour cell line growth inhibition, 48 h
CCRF-CEM leukemia = system: CCRF-CEM leukemia
OVCAR-4 ovarian = system: OVCAR-4 ovarian
SK-MEL-5 melanoma = system: SK-MEL-5 melanoma
SK-MEL-28 melanoma = system: SK-MEL-28 melanoma
KM20L2 colon = system: KM20L2 colon
SF-268 CNS = system: SF-268 CNS
A549 NSCLC = system: A549 NSCLC
EKVX NSCLC = system: EKVX NSCLC
M14 melanoma = system: M14 melanoma
LXFL 529 NSCLC = system: LXFL 529 NSCLC
SNB-78 CNS = system: SNB-78 CNS
DMS 114 small cell lung = system: DMS 114 small cell lung
MALME-3M melanoma = system: MALME-3M melanoma
COLO 205 colon = system: COLO 205 colon
KM12 colon = system: KM12 colon
SF-295 CNS = system: SF-295 CNS
SK-OV-3 ovarian = system: SK-OV-3 ovarian
SK-MEL-2 melanoma = system: SK-MEL-2 melanoma
HCC-2998 colon = system: HCC-2998 colon
HOP-62 NSCLC = system: HOP-62 NSCLC
HOP-92 NSCLC = system: HOP-92 NSCLC
OVCAR-3 ovarian = system: OVCAR-3 ovarian
RPMI-8226 leukemia = system: RPMI-8226 leukemia
MOLT-4 leukemia = system: MOLT-4 leukemia
K-562 leukemia = system: K-562 leukemia
DMS 273 small cell lung = system: DMS 273 small cell lung
NCI-H226 lung = system: NCI-H226 lung
SNB-75 CNS = system: SNB-75 CNS
SW-620 colon = system: SW-620 colon
HT29 colon = system: HT29 colon
ACHN renal = system: ACHN renal
SR leukemia = system: SR leukemia
U251 CNS = system: U251 CNS
IGROV1 ovarian = system: IGROV1 ovarian
HCT-116 colon = system: HCT-116 colon
786-0 renal = system: 786-0 renal
M19-MEL melanoma = system: M19-MEL melanoma
SNB-19 CNS = system: SNB-19 CNS
RXF 393 renal = system: RXF 393 renal
HOP-18 NSCLC = system: HOP-18 NSCLC
UACC-62 melanoma = system: UACC-62 melanoma
OVCAR-5 ovarian = system: OVCAR-5 ovarian
NCI-H23 lung = system: NCI-H23 lung
UACC-257 melanoma = system: UACC-257 melanoma
NCI-H460 lung = system: NCI-H460 lung
CAKI-1 renal = system: CAKI-1 renal
SN12C renal = system: SN12C renal
A498 renal = system: A498 renal
UO-31 renal = system: UO-31 renal
LOX IMVI melanoma = system: LOX IMVI melanoma
RXF-631 renal = system: RXF-631 renal
HCT-15 colon = system: HCT-15 colon
TK-10 renal = system: TK-10 renal
SF-539 CNS = system: SF-539 CNS
DLD-1 colon = system: DLD-1 colon
HL-60(TB) leukemia = system: HL-60(TB) leukemia
OVCAR-8 ovarian = system: OVCAR-8 ovarian
NCI-H522 lung = system: NCI-H522 lung
XF 498 CNS = system: XF 498 CNS

Measured: TGI

Cc1ccccc1-c1c(N)nc(NC#N)nc1C(=O)Nc1ccccc1
> 100 µM: CCRF-CEM leukemia | OVCAR-4 ovarian | SK-MEL-5 melanoma | SK-MEL-28 melanoma | KM20L2 colon | SF-268 CNS | A549 NSCLC | EKVX NSCLC | M14 melanoma | LXFL 529 NSCLC | SNB-78 CNS | DMS 114 small cell lung | MALME-3M melanoma | COLO 205 colon | KM12 colon | SF-295 CNS | SK-OV-3 ovarian | SK-MEL-2 melanoma | HCC-2998 colon | HOP-62 NSCLC | HOP-92 NSCLC | OVCAR-3 ovarian | RPMI-8226 leukemia | MOLT-4 leukemia | K-562 leukemia | DMS 273 small cell lung | NCI-H226 lung | SNB-75 CNS | SW-620 colon | HT29 colon | ACHN renal | SR leukemia | U251 CNS | IGROV1 ovarian | HCT-116 colon | 786-0 renal | M19-MEL melanoma | SNB-19 CNS | RXF 393 renal | HOP-18 NSCLC | UACC-62 melanoma | OVCAR-5 ovarian | NCI-H23 lung | UACC-257 melanoma | NCI-H460 lung | CAKI-1 renal | SN12C renal | A498 renal | UO-31 renal | LOX IMVI melanoma | RXF-631 renal | HCT-15 colon | TK-10 renal | SF-539 CNS | DLD-1 colon

O=C(O)CNc1c2ccccc2nc2ccccc12
> 100 µM: CCRF-CEM leukemia | OVCAR-4 ovarian | SK-MEL-5 melanoma | SK-MEL-28 melanoma | KM20L2 colon | SF-268 CNS | A549 NSCLC | EKVX NSCLC | M14 melanoma | LXFL 529 NSCLC | DMS 114 small cell lung | MALME-3M melanoma | COLO 205 colon | KM12 colon | SF-295 CNS | SK-OV-3 ovarian | SK-MEL-2 melanoma | HCC-2998 colon | HL-60(TB) leukemia | HOP-92 NSCLC | OVCAR-3 ovarian | RPMI-8226 leukemia | MOLT-4 leukemia | K-562 leukemia | DMS 273 small cell lung | NCI-H226 lung | SNB-75 CNS | SW-620 colon | HT29 colon | ACHN renal | SR leukemia | OVCAR-8 ovarian | U251 CNS | IGROV1 ovarian | HCT-116 colon | 786-0 renal | SNB-19 CNS | RXF 393 renal | UACC-62 melanoma | OVCAR-5 ovarian | NCI-H23 lung | UACC-257 melanoma | NCI-H460 lung | CAKI-1 renal | SN12C renal | UO-31 renal | LOX IMVI melanoma | NCI-H522 lung | RXF-631 renal | HCT-15 colon | XF 498 CNS | TK-10 renal | SF-539 CNS | DLD-1 colon
